According to publication PMC5467912, “Asymmetric regulation of quorum-sensing receptors drives autoinducer-specific gene expression programs in Vibrio cholerae” (PLoS Genetics, 2017):
“And” between values parts separate entries of the source, which are not always exact repeats. Equal values may be shown once.

Columns and labels:
CqsS = target: T1, CqsS (Vibrio cholerae serotype O1, UniProt Q9KM66); test: cell-based; details: for Light production: strain WN1102; for EC50: light production, reporter strain WN1102, 4 h at 30 °C; for RLU: Strain WN1102
T1 construct: endogenous in cells; host or cells: V. cholerae WN1102 (ΔcqsA ΔluxQ/pBB1), derived from C6706str2
T1 sequence (Q9KM66 whole entry, looked up): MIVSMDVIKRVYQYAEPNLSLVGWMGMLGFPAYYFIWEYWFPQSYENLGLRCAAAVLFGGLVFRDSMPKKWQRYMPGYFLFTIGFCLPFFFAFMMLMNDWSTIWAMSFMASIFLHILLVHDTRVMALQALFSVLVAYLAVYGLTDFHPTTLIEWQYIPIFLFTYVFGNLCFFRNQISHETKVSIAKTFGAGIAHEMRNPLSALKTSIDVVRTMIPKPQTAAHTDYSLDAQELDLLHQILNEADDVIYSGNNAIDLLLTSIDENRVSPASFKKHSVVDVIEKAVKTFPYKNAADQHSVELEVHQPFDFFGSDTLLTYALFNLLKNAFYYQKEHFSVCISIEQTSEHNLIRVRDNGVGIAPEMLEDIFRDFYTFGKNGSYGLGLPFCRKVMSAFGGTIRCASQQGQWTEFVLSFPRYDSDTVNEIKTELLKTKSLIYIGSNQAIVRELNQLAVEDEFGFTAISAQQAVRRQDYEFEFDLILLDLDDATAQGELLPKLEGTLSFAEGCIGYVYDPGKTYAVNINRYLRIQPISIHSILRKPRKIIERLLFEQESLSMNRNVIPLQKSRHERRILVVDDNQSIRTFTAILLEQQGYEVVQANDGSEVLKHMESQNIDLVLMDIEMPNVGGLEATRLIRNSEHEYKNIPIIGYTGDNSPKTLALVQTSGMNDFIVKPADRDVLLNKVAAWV

qrr4 = type: cell-based; details: LuxS-CqsA- strain + autoinducer; Rep 1-3

CCCn1nnnc1NCc1ccc(N(CC)CC)cc1 [#2]
Light production (CqsS; Agonist 0.0119209 nM): 10481 RLU and 11875 RLU and 20274 RLU
Light production (CqsS; Agonist 0.0476837 nM): 11765 RLU and 13923 RLU and 13822 RLU
Light production (CqsS; Agonist 0.190735 nM): 21584 RLU and 21176 RLU and 18763 RLU
Light production (CqsS; Agonist 0.762939 nM): 32000 RLU and 26047 RLU and 22456 RLU
Light production (CqsS; Agonist 3.05176 nM): 51860 RLU and 50633 RLU and 45087 RLU
Light production (CqsS; Agonist 12.207 nM): 312292 RLU and 263721 RLU and 253642 RLU
Light production (CqsS; Agonist 48.8281 nM): 5147778 RLU and 5005576 RLU and 4962410 RLU
Light production (CqsS; Agonist 195.312 nM): 29151080 RLU and 28675780 RLU and 30844170 RLU
Light production (CqsS; Agonist 781.25 nM): 78218700 RLU and 84853010 RLU and 92706410 RLU
Light production (CqsS; Agonist 3125 nM): 94808130 RLU and 116685800 RLU and 113209800 RLU
Light production (CqsS; Agonist 12500 nM): 93694120 RLU and 114540600 RLU and 119989100 RLU
Light production (CqsS; Agonist 50000 nM): 88291390 RLU and 103481200 RLU and 109394800 RLU
EC50 (CqsS): 26 nM

CCCn1nnnc1NCc1ccc(N2CCCC2)cc1 [#3]
Light production (CqsS; Agonist 0.0476837 nM): 13269 RLU and 14460 RLU and 11456 RLU
Light production (CqsS; Agonist 0.190735 nM): 18051 RLU and 20632 RLU and 16089 RLU
Light production (CqsS; Agonist 0.762939 nM): 27556 RLU and 29263 RLU and 25287 RLU
Light production (CqsS; Agonist 3.05176 nM): 53410 RLU and 57320 RLU and 53409 RLU
Light production (CqsS; Agonist 12.207 nM): 598613 RLU and 571778 RLU and 545574 RLU
Light production (CqsS; Agonist 48.8281 nM): 17729790 RLU and 16188200 RLU and 18180520 RLU
Light production (CqsS; Agonist 195.312 nM): 52331460 RLU and 53359300 RLU and 52422750 RLU
Light production (CqsS; Agonist 781.25 nM): 72153380 RLU and 70458940 RLU and 74315090 RLU
Light production (CqsS; Agonist 3125 nM): 80807740 RLU and 76653980 RLU and 72594050 RLU
Light production (CqsS; Agonist 12500 nM): 69868890 RLU and 66115120 RLU and 65607710 RLU
Light production (CqsS; Agonist 50000 nM): 41204600 RLU and 38225840 RLU and 37314420 RLU
fold less potent than compound #1 (CqsS; EC50 comparison): approximately 4 fold
EC50 (CqsS): 14 nM

CCCn1nnnc1NCc1ccc(C(C)C)cc1 [#4]
Light production (CqsS; Agonist 0.0119209 nM): 12293 RLU and 13200 RLU and 7500 RLU
Light production (CqsS; Agonist 0.0476837 nM): 18202 RLU and 15106 RLU and 14409 RLU
Light production (CqsS; Agonist 0.190735 nM): 28023 RLU and 25417 RLU and 23860 RLU
Light production (CqsS; Agonist 0.762939 nM): 52174 RLU and 73300 RLU and 48409 RLU
Light production (CqsS; Agonist 3.05176 nM): 246211 RLU and 267975 RLU and 261469 RLU
Light production (CqsS; Agonist 12.207 nM): 3790123 RLU and 3428043 RLU and 3340791 RLU
Light production (CqsS; Agonist 48.8281 nM): 19838010 RLU and 18010170 RLU and 17447160 RLU
Light production (CqsS; Agonist 195.312 nM): 61742000 RLU and 56850120 RLU and 54681960 RLU
Light production (CqsS; Agonist 781.25 nM): 104719700 RLU and 101045100 RLU and 95346500 RLU
Light production (CqsS; Agonist 3125 nM): 119868200 RLU and 118607300 RLU and 107846700 RLU
Light production (CqsS; Agonist 12500 nM): 122328400 RLU and 118368100 RLU and 108047500 RLU
Light production (CqsS; Agonist 50000 nM): 103497500 RLU and 101746000 RLU and 97356600 RLU
EC50 (CqsS): 7 nM

CCn1nnnc1NCc1ccc(C(C)C)cc1 [#5]
Light production (CqsS; Agonist 0.0119209 nM): 22342 RLU and 16526 RLU and 20189 RLU
Light production (CqsS; Agonist 0.0476837 nM): 18351 RLU and 14922 RLU and 16393 RLU
Light production (CqsS; Agonist 0.190735 nM): 24222 RLU and 32473 RLU and 30802 RLU
Light production (CqsS; Agonist 0.762939 nM): 43006 RLU and 46460 RLU and 51236 RLU
Light production (CqsS; Agonist 3.05176 nM): 215673 RLU and 187636 RLU and 197250 RLU
Light production (CqsS; Agonist 12.207 nM): 3692444 RLU and 3488605 RLU and 3831864 RLU
Light production (CqsS; Agonist 48.8281 nM): 25448660 RLU and 29298250 RLU and 27925710 RLU
Light production (CqsS; Agonist 195.312 nM): 71515280 RLU and 80802780 RLU and 79358510 RLU
Light production (CqsS; Agonist 781.25 nM): 95077870 RLU and 111974800 RLU and 120784000 RLU
Light production (CqsS; Agonist 3125 nM): 107051300 RLU and 126535100 RLU and 129294500 RLU
Light production (CqsS; Agonist 12500 nM): 98996430 RLU and 113608500 RLU and 123733600 RLU
Light production (CqsS; Agonist 50000 nM): 91459320 RLU and 107555000 RLU and 106482900 RLU
EC50 (CqsS): 8 nM

c1cc(N2CCCC2)ccc1CNc1nnn[nH]1 [#6]
CqsS agonist activity (CqsS; S10 Fig): loses all activity
RLU (CqsS; agonist 0.762939 nM): 2.15E+03 RLU and 2.08E+03 RLU and 4.10E+03 RLU
RLU (CqsS; agonist 12.207 nM): 2.13E+03 RLU and 2.35E+03 RLU and 4.10E+03 RLU
RLU (CqsS; agonist 48.8281 nM): 2.14E+03 RLU and 2.26E+03 RLU and 4.12E+03 RLU
RLU (CqsS; agonist 195.312 nM): 6.45E+03 RLU and 4.19E+03 RLU and 4.17E+03 RLU
RLU (CqsS; agonist 50000 nM): 6.42E+03 RLU and 4.10E+03 RLU and 6.49E+03 RLU

CCC(C)NC(=O)Cc1ccc(-c2ccccc2)cc1 (centres unmarked) [#7]
Light production (CqsS; Agonist 0.0119209 nM): 14566 RLU and 10667 RLU and 7878.8 RLU
Light production (CqsS; Agonist 0.0476837 nM): 16089 RLU and 13267 RLU and 10570 RLU
Light production (CqsS; Agonist 0.190735 nM): 18864 RLU and 15385 RLU and 12553 RLU
Light production (CqsS; Agonist 0.762939 nM): 24094 RLU and 21702 RLU and 17241 RLU
Light production (CqsS; Agonist 3.05176 nM): 32638 RLU and 25814 RLU and 24906 RLU
Light production (CqsS; Agonist 12.207 nM): 48047 RLU and 41582 RLU and 31818 RLU
Light production (CqsS; Agonist 48.8281 nM): 81242 RLU and 67619 RLU and 51844 RLU
Light production (CqsS; Agonist 195.312 nM): 183313 RLU and 159529 RLU and 160500 RLU
Light production (CqsS; Agonist 781.25 nM): 10770860 RLU and 8237516 RLU and 9173585 RLU
Light production (CqsS; Agonist 3125 nM): 90855490 RLU and 84011930 RLU and 82291170 RLU
Light production (CqsS; Agonist 12500 nM): 122744100 RLU and 104793600 RLU and 103467300 RLU
Light production (CqsS; Agonist 50000 nM): 104239700 RLU and 95731630 RLU and 92148540 RLU
EC50 (CqsS): 403 nM

O=C(Cc1ccc(-c2ccccc2)cc1)NC1CCC1 [#8]
Light production (CqsS; Agonist 0.0119209 nM): 17900 RLU and 10791 RLU and 14350 RLU
Light production (CqsS; Agonist 0.0476837 nM): 11100 RLU and 15000 RLU and 11881 RLU
Light production (CqsS; Agonist 0.190735 nM): 26990 RLU and 16080 RLU and 18824 RLU
Light production (CqsS; Agonist 0.762939 nM): 24950 RLU and 23905 RLU
Light production (CqsS; Agonist 3.05176 nM): 48627 RLU and 40000 RLU and 32706 RLU
Light production (CqsS; Agonist 12.207 nM): 75176 RLU and 69890 RLU and 67191 RLU
Light production (CqsS; Agonist 48.8281 nM): 1115870 RLU and 738497 RLU and 676886 RLU
Light production (CqsS; Agonist 195.312 nM): 40840900 RLU and 39570670 RLU and 37676260 RLU
Light production (CqsS; Agonist 781.25 nM): 91907700 RLU and 100480500 RLU and 102019900 RLU
Light production (CqsS; Agonist 3125 nM): 92588910 RLU and 118830300 RLU and 113054700 RLU
Light production (CqsS; Agonist 12500 nM): 89613410 RLU and 99998040 RLU and 103728600 RLU
Light production (CqsS; Agonist 50000 nM): 78185000 RLU and 81850050 RLU and 75936470 RLU
EC50 (CqsS): 53 nM

O=C(Cc1ccc(-c2ccccn2)cc1)NC1CCCC1 [#9]
Light production (CqsS; Agonist 0.0119209 nM): 8704.7 RLU and 9014.1 RLU and 7722.8 RLU
Light production (CqsS; Agonist 0.0476837 nM): 11317 RLU and 7830.7 RLU and 9751.2 RLU
Light production (CqsS; Agonist 0.190735 nM): 10595 RLU and 11217 RLU and 6363.6 RLU
Light production (CqsS; Agonist 0.762939 nM): 13636 RLU and 11364 RLU and 8044.7 RLU
Light production (CqsS; Agonist 3.05176 nM): 16879 RLU and 13647 RLU and 11676 RLU
Light production (CqsS; Agonist 12.207 nM): 22994 RLU and 16264 RLU and 15148 RLU
Light production (CqsS; Agonist 48.8281 nM): 32335 RLU and 27200 RLU and 23011 RLU
Light production (CqsS; Agonist 195.312 nM): 55190 RLU and 44311 RLU and 39030 RLU
Light production (CqsS; Agonist 781.25 nM): 108075 RLU and 97949 RLU and 93072 RLU
Light production (CqsS; Agonist 3125 nM): 7362143 RLU and 7832704 RLU and 8085455 RLU
Light production (CqsS; Agonist 12500 nM): 55377500 RLU and 53818320 RLU and 53583010 RLU
Light production (CqsS; Agonist 50000 nM): 93123590 RLU and 90629940 RLU and 93211830 RLU
EC50 (CqsS): 1720 nM

CCCCCCCCCC(=O)[C@@H](O)CC [CAI]
RLU, average per biological replicate (Totals) (qrr4): 2.55E+08 RLU and 2.82E+08 RLU and 3.63E+08 RLU
